Test results published in publication PMC8699473, “An Easily Expandable Multi-Drug LC-MS Assay for the Simultaneous Quantification of 57 Oral Antitumor Drugs in Human Plasma” (Cancers, 2021).

Experiment: Long-term stability in spiked pooled human plasma

| Structure (SMILES) | Long-term stability, 1 month, -20°C Accuracy [%] (validation standard 2xLLOV) | Long-term stability, 1 month, -80°C Accuracy [%] (validation standard 2xLLOV) | Long-term stability, 2 month, -20°C Accuracy [%] (validation standard 2xLLOV) | Long-term stability, 2 month, -80°C Accuracy [%] (validation standard 2xLLOV) | Long-term stability, 3 month, -20°C Accuracy [%] (validation standard 2xLLOV) | Long-term stability, 3 month, -80°C Accuracy [%] (validation standard 2xLLOV) | Long-term stability, 6 weeks, 4°C, without daylight Accuracy [%] (validation standard 2xLLOV) | Long-term stability, 1 month, -20°C Accuracy [%] (validation standard LLOV) | Long-term stability, 1 month, -80°C Accuracy [%] (validation standard LLOV) | Long-term stability, 2 month, -20°C Accuracy [%] (validation standard LLOV) | Long-term stability, 2 month, -80°C Accuracy [%] (validation standard LLOV) | Long-term stability, 3 month, -20°C Accuracy [%] (validation standard LLOV) | Long-term stability, 3 month, -80°C Accuracy [%] (validation standard LLOV) | Long-term stability, 6 weeks, 4°C, without daylight Accuracy [%] (validation standard LLOV) | Long-term stability, 1 month, -20°C Accuracy [%] (validation standard MOV) | Long-term stability, 1 month, -80°C Accuracy [%] (validation standard MOV) | Long-term stability, 2 month, -20°C Accuracy [%] (validation standard MOV) | Long-term stability, 2 month, -80°C Accuracy [%] (validation standard MOV) | Long-term stability, 3 month, -20°C Accuracy [%] (validation standard MOV) | Long-term stability, 3 month, -80°C Accuracy [%] (validation standard MOV) | other results |
| --- | --- | --- | --- | --- | --- | --- | --- | --- | --- | --- | --- | --- | --- | --- | --- | --- | --- | --- | --- | --- | --- |
| COc1cc2ncnc(Nc3ccc(F)c(Cl)c3)c2cc1OCCCN1CCOCC1 [Gefitinib] | 99.2 | 94.2 | 105.6 | 108.5 | 103.9 | 101.3 | 89.3 | 95.8 | 89.0 | 101.3 | 102.7 | 100.2 | 99.5 | 78.5 | 100.7 | 99.3 | 105.1 | 104.1 | 102.7 | 99.9 | Long-term stability, 6 weeks, 4°C, without daylight Accuracy [%] (validation standard MOV): 105.7%; Long-term stability, 1 month, -20°C Accuracy [%] (validation standard ULOV): 98.5%; Long-term stability, 1 month, -80°C Accuracy [%] (validation standard ULOV): 93.5%; Long-term stability, 2 month, -20°C Accuracy [%] (validation standard ULOV): 99.2%; Long-term stability, 2 month, -80°C Accuracy [%] (validation standard ULOV): 101.3%; Long-term stability, 3 month, -20°C Accuracy [%] (validation standard ULOV): 99.2%; Long-term stability, 3 month, -80°C Accuracy [%] (validation standard ULOV): 99.2%; Long-term stability, 6 weeks, 4°C, without daylight Accuracy [%] (validation standard ULOV): 97.6% |
| NC(=O)c1cccc2cn(-c3ccc([C@@H]4CCCNC4)cc3)nc12 [Niraparib] | 101.4 | 94.5 | 104.1 | 106.0 | 99.8 | 95.7 | 96.1 | 97.8 | 93.4 | 101.8 | 102.4 | 96.1 | 95.4 | 94.3 | 99.8 | 99.6 | 105.3 | 103.9 | 102.2 | 100.4 | Long-term stability, 6 weeks, 4°C, without daylight Accuracy [%] (validation standard MOV): 104.5%; Long-term stability, 1 month, -20°C Accuracy [%] (validation standard ULOV): 100.8%; Long-term stability, 1 month, -80°C Accuracy [%] (validation standard ULOV): 98.5%; Long-term stability, 2 month, -20°C Accuracy [%] (validation standard ULOV): 103.3%; Long-term stability, 2 month, -80°C Accuracy [%] (validation standard ULOV): 104.1%; Long-term stability, 3 month, -20°C Accuracy [%] (validation standard ULOV): 100.4%; Long-term stability, 3 month, -80°C Accuracy [%] (validation standard ULOV): 101.8%; Long-term stability, 6 weeks, 4°C, without daylight Accuracy [%] (validation standard ULOV): 96.4% |
| O=C1CN2Cc3c(ccc(Cl)c3Cl)N=C2N1 [Anagrelide] | 99.8 | 105.6 | 121.4 | 118.5 | 110.2 | 114.9 | 74.6 | 103.9 | 121.5 | 128.7 | 141.5 | 101.8 | 118.8 | 33.5 | 95.0 | 97.0 | 101.3 | 98.7 | 95.7 | 95.1 | Long-term stability, 6 weeks, 4°C, without daylight Accuracy [%] (validation standard MOV): 103.7%; Long-term stability, 1 month, -20°C Accuracy [%] (validation standard ULOV): 95.4%; Long-term stability, 1 month, -80°C Accuracy [%] (validation standard ULOV): 90.8%; Long-term stability, 2 month, -20°C Accuracy [%] (validation standard ULOV): 94.5%; Long-term stability, 2 month, -80°C Accuracy [%] (validation standard ULOV): 99.2%; Long-term stability, 3 month, -20°C Accuracy [%] (validation standard ULOV): 94.9%; Long-term stability, 3 month, -80°C Accuracy [%] (validation standard ULOV): 94.7%; Long-term stability, 6 weeks, 4°C, without daylight Accuracy [%] (validation standard ULOV): 97.1% |
| C=CC(=O)Nc1cc(Nc2nccc(-c3cn(C)c4ccccc34)n2)c(OC)cc1N(C)CCN(C)C [Osimertinib] | 95.2 | 93.2 | 89.2 | 103.9 | 82.8 | 100.0 | 10.5 | 83.0 | 86.9 | 84.8 | 96.9 | 66.7 | 91.8 | 5.4 | 97.0 | 96.6 | 95.2 | 101.6 | 90.9 | 101.8 | Long-term stability, 6 weeks, 4°C, without daylight Accuracy [%] (validation standard MOV): 53.4%; Long-term stability, 1 month, -20°C Accuracy [%] (validation standard ULOV): 92.3%; Long-term stability, 1 month, -80°C Accuracy [%] (validation standard ULOV): 93.2%; Long-term stability, 2 month, -20°C Accuracy [%] (validation standard ULOV): 91.4%; Long-term stability, 2 month, -80°C Accuracy [%] (validation standard ULOV): 101.4%; Long-term stability, 3 month, -20°C Accuracy [%] (validation standard ULOV): 88.6%; Long-term stability, 3 month, -80°C Accuracy [%] (validation standard ULOV): 93.8%; Long-term stability, 6 weeks, 4°C, without daylight Accuracy [%] (validation standard ULOV): 41.5% |
